From US6710877B2, “Apparatus and methods for determining biomolecular interactions” (Corning Incorporated, priority 2001, dated 2004)
Where two headings read alike, the source gives them in different places.

Experiments:
Assay type in all cases: binding
anti-biotin = assay: Dual compartment absorbance sensor: leaching of ligand from agarose gel containing anti-biotin; settings: anti-biotin instead of streptavidin, otherwise as Example 2
streptavidin [1] = molecular target: T1, streptavidin (Streptomyces avidinii, UniProt P22629); assay: Three slot diffraction sensor: leaching of ligand out of the central sensing volume
T1 construct: purchased Sigma Corp., St. Louis, Mo; B3763

streptavidin [2] = molecular target: T1, streptavidin; assay: Dual compartment absorbance sensor: leaching of ligand from agarose gel containing streptavidin; settings: for effective binding constant k from fit of equation 3 to concentration-time traces: 2.5% agarose gel, streptavidin, 8.4×10^−4 M ligand, 0.1×SSC buffer, 220 nm absorbance; for coefficient1 of fitting function f=coefficient1*Error_Function(coefficient2*time^1/2) / coefficient2 of fitting function f=coefficient1*Error_Function(coefficient2*time^1/2): average of traces, Marquardt-Levenberg fit

T1 sequence (P22629 25-183, species assumed): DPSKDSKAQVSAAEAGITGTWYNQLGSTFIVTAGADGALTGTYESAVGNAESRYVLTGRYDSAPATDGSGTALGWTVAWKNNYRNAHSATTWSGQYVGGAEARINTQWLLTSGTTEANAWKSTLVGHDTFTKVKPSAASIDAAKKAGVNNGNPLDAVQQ

Row | SMILES | binding affinities with anti-biotin in upstream compartment (FIGS. 7A and 7B) (anti-biotin) | leaching out of central sensing volume, peak-to-peak intensity difference versus time (FIG. 10) (streptavidin [1]) | effective binding constant k from fit of equation 3 to concentration-time traces (streptavidin [2]) [min⁻¹] | coefficient1 of fitting function f=coefficient1*Error_Function(coefficient2*time^1/2) (streptavidin [2]) [mM] | coefficient2 of fitting function f=coefficient1*Error_Function(coefficient2*time^1/2) (streptavidin [2]) | factor by which binding constant k of biotin exceeds that of glutamine (streptavidin [2]; biotin versus glutamine curve-fits) | leaching out of central sensing volume, peak-to-peak intensity difference versus time (FIG. 10) (streptavidin [1]; three samples each, 1×TBE buffer, qualitative)
1 | O=C(O)CCCC[C@@H]1SC[C@@H]2NC(=O)N[C@@H]21 [biotin] | indistinguishable | more activity in the biotin traces | 0.01186 | ~1.5 | 0.1089 | 4 | –
2 | NC(=O)CC[C@H](N)C(=O)O [glutamine] | indistinguishable | – | 0.00325 | ~1.6 | 0.0570 | – | much slower than biotin leaching
